The values that follow come from patent US8202908B1, “D-aspartic acid supplement” (priority 2008, dated 2012).

In one experiment the test system is adult male humans. Briefly: Oral DL-aspartic acid given to adult male humans for 21 days, blood hormone levels. As to conditions: adult males aged twenty to sixty; 10, 20 or 40 grams DL-aspartic acid per day orally in two doses for twenty-one days; versus baseline. The class given is in vivo, human. Here is the method: This example illustrates the effects of administering D-aspartic acid to adult male humans.
A group of nine adult males ranging in age from twenty to sixty is divided into three groups of three men each. The division is made so that each group contains a similar age distribution. Blood samples are taken and the levels of testosterone, growth hormone, and insulin-like growth factor 1 are measured.
The men in the first group orally ingest 10 grams of DL-aspartic acid (which includes 5 grams of D-aspartic acid) daily for twenty-one days. The amount is divided into two equal doses, one of which is taken in the morning and one of which is taken in the evening. The men in the second and third groups follow a similar procedure except the men in the second group orally ingest 20 grams of DL-aspartic acid (which includes 10 grams of D-aspartic acid) per day and the men in the third group orally ingest 40 grams of DL-aspartic acid (which includes 20 grams of D-aspartic acid) per day. Blood samples are then retaken.

For a further experiment, the system named is animals. Conditions: cited from earlier work.
The test system of a further experiment is finishing pigs. Conditions: finishing pigs fed with N-methyl-D-aspartate; cited from earlier work.
The test system of a further experiment is pituitary gland. As to conditions: both in-vitro and in-vivo; cited from earlier work.
The subject of another experiment is pituitary. Conditions: both in-vitro and in-vivo; cited from earlier work.
The subject of a further experiment is testes. As to conditions: both in-vitro and in-vivo; cited from earlier work.

As to `NC(CC(=O)O)C(=O)O` (racemic) [DL-aspartic acid], in the experiment on adult male humans, the “level of growth hormone in blood” value was “significant increases”, the “level of insulin-like growth factor 1 in blood” value is “significant increases” and the “level of testosterone in blood” value was “significant increases”.
On to `CN[C@H](CC(=O)O)C(=O)O` [N-methyl-D-aspartate], for which, in the experiment on animals, the “growth hormone levels in the animals” value is recorded as “increase” and the “testosterone levels in the animals” value was “increase”. Further, in the experiment with finishing pigs, the growth rate result is given as “increase in growth rate”. Moreover, the “growth hormone production from the pituitary gland” value in the experiment with pituitary gland is reported as “stimulate growth hormone production”.
As to `N[C@H](CC(=O)O)C(=O)O` [D-aspartic acid], in the experiment on animals, the “growth hormone levels in the animals” value was “increase” and the “testosterone levels in the animals” value is “increase”. Also, the “release of luteinizing hormone from the pituitary” value in the experiment on pituitary was “stimulate the release”. Further, the “release of testosterone from the testes” value in the experiment on testes is reported as “stimulate the release”. In the experiment with pituitary gland, the “growth hormone production from the pituitary gland” value is “stimulate growth hormone production”.
